One test concerns S. aureus ST20131365. Description: MIC by microdilution, S. aureus ST20131365. It counts as cell-based, Staphylococcus aureus. As to conditions: S. aureus ST20131365 (MecA positive, glycopeptide resistant), in duplicate. A digest of the protocol:
(§1)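 Broth microdilution per CLSI (M07-A10) in Mueller-Hinton broth, run in duplicate; MIC recorded as minimal inhibitory concentration. Panel spans wild-type to multidrug-resistant strains, e.g. S. aureus ATCC700699 (MecA+, glycopeptide resistant), S. epidermidis ATCC35984 (MecA+), E. coli ATCC25922 (wild-type).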
Background: In broth dilution the organism is exposed to a series of concentrations in liquid medium.

In test [1] the test system is S. epidermidis ST20150446. As to the kind of experiment: MIC by microdilution, S. epidermidis ST20150446. It counts as cell-based, Staphylococcus epidermidis. As to conditions: S. epidermidis ST20150446 (MecA positive, glycopeptide resistant), in duplicate. In outline: (§2)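 Broth microdilution per CLSI document M07-A10, Mueller-Hinton medium, each MIC run in duplicate. Strains include E. coli ATCC25922 (wild-type), S. epidermidis ATCC35984 (MecA positive) and S. aureus ATCC700699 (MecA positive, glycopeptide resistant), within a mixed panel of susceptible and resistant Gram-positive/Gram-negative bacteria.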

For another test, the system named is E. faecalis JH2-2. Description: MIC by microdilution, E. faecalis JH2-2. As to conditions: E. faecalis JH2-2 (wild-type), in duplicate. It counts as cell-based, Enterococcus faecalis. On the set-up: unit not given here. In outline: as §2
The test system of another test is S. aureus ATCC29213. Description: MIC by microdilution, S. aureus ATCC29213. The test is classed as cell-based, Staphylococcus aureus. As to conditions: S. aureus ATCC29213 (MecA negative, wild-type), Mueller-Hinton broth, in duplicate. In outline: as §2
Another test has as its system E. faecalis V583. Description: MIC by microdilution, E. faecalis V583. It counts as cell-based, Enterococcus faecalis. The conditions noted are these: E. faecalis V583 (VanB positive, glycopeptide resistant), in duplicate. In outline: as §1
The next test deals with E. faecium ATCC19434T. Description: MIC by microdilution, E. faecium ATCC19434T. It counts as cell-based, Enterococcus faecium. On the set-up: unit not given here. As to conditions: E. faecium ATCC19434T (wild-type), in duplicate. A digest of the protocol:
as §2

In the next test the test system is S. epidermidis ATCC14990. As to the kind of experiment: MIC by microdilution, S. epidermidis ATCC14990. The conditions noted are these: S. epidermidis ATCC14990 (MecA negative, wild-type), in duplicate. The test is classed as cell-based, Staphylococcus epidermidis. A digest of the protocol:
as §1

The next test relates to E. faecalis UCN41. Description: MIC by microdilution, E. faecalis UCN41. It counts as cell-based, Enterococcus faecalis. As to conditions: E. faecalis UCN41 (VanA positive, glycopeptide resistant), in duplicate. On the set-up: unit not given here. A digest of the protocol: as §2
A further test concerns E. coli ATCC25922. Description: MIC by microdilution, E. coli ATCC25922. It counts as cell-based, Escherichia coli. As to conditions: E. coli ATCC25922 (wild-type), in duplicate. A digest of the protocol:
as §1

Test [2] deals with panel of Gram-positive and Gram-negative strains. Description: Antibacterial profile on the selected panel of strains. The test is classed as cell-based. As to conditions: summary of Tables 1-12. A digest of the protocol: as §1
The test system of a further test is S. aureus ATCC25923. Description: MIC by microdilution, S. aureus ATCC25923. As to conditions: S. aureus ATCC25923 (MecA negative, wild-type), Mueller-Hinton broth, in duplicate. The test is classed as cell-based, Staphylococcus aureus. A digest of the protocol: as §2
The subject of test [3] is S. epidermidis ST20140436. Description: MIC by microdilution, S. epidermidis ST20140436. It counts as cell-based, Staphylococcus epidermidis. As to conditions: S. epidermidis ST20140436 (MecA positive, glycopeptide resistant), in duplicate. In outline: as §2
The test system of a further test is E. faecium BM4147. Description: MIC by microdilution, E. faecium BM4147. It counts as cell-based, Enterococcus faecium. Details: unit not given here. The conditions noted are these: E. faecium BM4147 (VanA positive, glycopeptide resistant), in duplicate. In outline:
as §2

A further test deals with S. aureus ATCC700699. As to the kind of experiment: MIC by microdilution, S. aureus ATCC700699. Details: unit not given here. It counts as cell-based, Staphylococcus aureus. The conditions noted are these: S. aureus ATCC700699 (MecA positive, glycopeptide resistant), in duplicate. A digest of the protocol: as §1
For test [4], the system named is Clostridium difficile ATCC700057. As to the kind of experiment: MIC by microdilution, Clostridium difficile. It counts as cell-based. The conditions noted are these: strain ATCC70057 [sic] (Tables 1-2) / ATCC700057 (Tables 3-10), in duplicate.
Another test relates to E. faecium AUS0004. As to the kind of experiment: MIC by microdilution, E. faecium AUS0004. The test is classed as cell-based, Enterococcus faecium. The conditions noted are these: E. faecium AUS0004 (VanB positive, glycopeptide resistant), in duplicate. In outline: as §2
For a further test, the system named is S. epidermidis ATCC35984. As to the kind of experiment: MIC by microdilution, S. epidermidis ATCC35984. The conditions noted are these: S. epidermidis ATCC35984 (MecA positive), in duplicate. It counts as cell-based, Staphylococcus epidermidis. A digest of the protocol: as §1

Molecules are shown by their SMILES. Values joined by “and” are separate entries in the source; they are usually repeats but may differ in a detail not shown here. Equal entries are not always repeated.

Regarding `CC[P+](CC)(CC)[Au-][c]1nn[nH]c1COC(=O)NCC(=O)O` [TMB18], the “Minimal Inhibitory Concentration (MIC)” value with S. aureus ST20131365 is 0.125; in test [1] it was ≤0.06; with E. faecalis JH2-2 it was 0.25; with S. aureus ATCC29213, 0.125; with E. faecalis V583 it was 0.25 and 0.5; in the test on E. faecium ATCC19434T, 0.25. Moreover, the “Minimal Inhibitory Concentration (MIC)” value in the test with S. epidermidis ATCC14990 is ≤0.06; with E. faecalis UCN41, 0.25 and 0.5; with E. coli ATCC25922, >8; in the test on S. aureus ATCC25923 it was 0.125; in [3], ≤0.06; with E. faecium BM4147, 0.5. Besides, the “Minimal Inhibitory Concentration (MIC)” value is reported as 0.125 in the test on S. aureus ATCC700699, ≤0.06 in test [4], 0.25 in the test with E. faecium AUS0004 and ≤0.06 in the test on S. epidermidis ATCC35984. Moreover, the “antimicrobial / antibacterial activity (in words)” value in test [2] is “have antimicrobial activity”.
For `CC[P+](CC)(CC)[Au-][c]1nn[nH]c1CN1CCN(C)CC1` [TMB33], the “Minimal Inhibitory Concentration (MIC)” value with S. aureus ST20131365 was determined as 0.25; in [1] it was 0.25; with E. faecalis JH2-2 it was 0.25; with S. aureus ATCC29213, 0.25; in the test with E. faecalis V583, 0.5; with E. faecium ATCC19434T, 0.25. Further, the “Minimal Inhibitory Concentration (MIC)” value with S. epidermidis ATCC14990 is ≤0.06; in the test with E. faecalis UCN41 it was 1; in the test with E. coli ATCC25922, >8; in the test with S. aureus ATCC25923 it was 0.125; in [3] it was 0.25; with E. faecium BM4147, 0.5. Further, the “Minimal Inhibitory Concentration (MIC)” value was 0.25 in the test on S. aureus ATCC700699, ≤0.06 in test [4], 0.5 with E. faecium AUS0004 and ≤0.06 with S. epidermidis ATCC35984. Also, the “antimicrobial / antibacterial activity (in words)” value in test [2] is “have antimicrobial activity”.
Regarding `CC[P+](CC)(CC)[Au-][c]1nn[nH]c1COC(=O)NC(C(=O)OC(C)(C)C)c1ccccc1` (stereo not drawn) [TMB15], the “Minimal Inhibitory Concentration (MIC)” value in the test with S. aureus ST20131365 was 0.25 and 0.5; in test [1] it was 0.125 and 0.25; in the test on E. faecalis JH2-2 it was 2; in the test on S. aureus ATCC29213, 0.5; with E. faecalis V583 it was 2 and 4; in the test with E. faecium ATCC19434T it was 2. Moreover, the “Minimal Inhibitory Concentration (MIC)” value is ≤0.06 with S. epidermidis ATCC14990; 2 with E. faecalis UCN41; >8 in the test on E. coli ATCC25922; 0.25 and 0.5 with S. aureus ATCC25923; 0.125 in test [3]; 4 with E. faecium BM4147. In addition, the “Minimal Inhibitory Concentration (MIC)” value with S. aureus ATCC700699 is 0.5; in test [4] it was 0.125 and 0.25; with E. faecium AUS0004, 2; in the test on S. epidermidis ATCC35984, ≤0.06. In test [2], the “antimicrobial / antibacterial activity (in words)” value was “have antimicrobial activity”.
For the compound `CC1(C)S[C@@H]2[C@H](NC(=O)[C@H](NC(=O)OCc3cnnn3Cc3ccccc3)c3ccccc3)C(=O)N2[C@H]1C(=O)O` [TMB7], the “Minimal Inhibitory Concentration (MIC)” value was >8 in the test on S. aureus ST20131365; >8 in test [1]; 1 and 2 in the test on E. faecalis JH2-2; 1 in the test with S. aureus ATCC29213; 2 in the test with E. faecalis V583; 8 in the test on E. faecium ATCC19434T. Besides, the “Minimal Inhibitory Concentration (MIC)” value in the test with S. epidermidis ATCC14990 was 1; in the test with E. faecalis UCN41, 4; in the test on E. coli ATCC25922, >8; with S. aureus ATCC25923 it was 1; in [3], 8; in the test with E. faecium BM4147 it was >8. In addition, the “Minimal Inhibitory Concentration (MIC)” value in the test on S. aureus ATCC700699 was >8; in [4], 4; in the test on E. faecium AUS0004, >8; in the test with S. epidermidis ATCC35984, >8. Also, the “antimicrobial / antibacterial activity (in words)” value in test [2] was “do not show an antibacterial activity”.
`CC1(C)S[C@@H]2[C@H](NC(=O)[C@H](NC(=O)CCc3cn(Cc4ccccc4)nn3)c3ccccc3)C(=O)N2[C@H]1C(=O)O` [TMB9]: the “Minimal Inhibitory Concentration (MIC)” value in the test with S. aureus ST20131365 is on record as >8; in [1] it was 8/>8; in the test with E. faecalis JH2-2, 2; in the test on S. aureus ATCC29213 it was 1; with E. faecalis V583, 4; in the test on E. faecium ATCC19434T, 8. Moreover, the “Minimal Inhibitory Concentration (MIC)” value was 1 in the test with S. epidermidis ATCC14990; 8 in the test on E. faecalis UCN41; >8 with E. coli ATCC25922; 1 with S. aureus ATCC25923; 8 in [3]; >8 in the test on E. faecium BM4147. Also, the “Minimal Inhibitory Concentration (MIC)” value is on record as >8 in the test with S. aureus ATCC700699, 2-4 in [4], >8 in the test on E. faecium AUS0004 and >8 in the test with S. epidermidis ATCC35984. Also, in [2], the “antimicrobial / antibacterial activity (in words)” value is “do not show an antibacterial activity”.
`CC[P+](CC)(CC)[Au-][c]1nn[nH]c1-c1cccc(C(=O)O)c1` [TMB13]: the “Minimal Inhibitory Concentration (MIC)” value is 0.25 with S. aureus ST20131365; ≤0.06 in test [1]; 1 and 2 with E. faecalis JH2-2; 0.125 and 0.25 in the test on S. aureus ATCC29213; 1 and 2 in the test with E. faecalis V583; 0.5 with E. faecium ATCC19434T. The “Minimal Inhibitory Concentration (MIC)” value in the test on S. epidermidis ATCC14990 was ≤0.06; in the test on E. faecalis UCN41, 1 and 2; in the test with E. coli ATCC25922 it was >8; in the test on S. aureus ATCC25923 it was 0.125; in test [3] it was ≤0.06; with E. faecium BM4147, 2. Besides, the “Minimal Inhibitory Concentration (MIC)” value in the test on S. aureus ATCC700699 is 0.25; in test [4], ≤0.06; in the test on E. faecium AUS0004, 1 and 2; with S. epidermidis ATCC35984, ≤0.06. The “antimicrobial / antibacterial activity (in words)” value in test [2] is reported as “have antimicrobial activity”.
